From PMC12658050 (Scientific Reports, 2025)

Molecular target: cyclin B1 (CCNB1) (Homo sapiens, UniProt P14635)
Assay: SPR
Type: binding

Chain of cyclin B1 (CCNB1) (P14635 whole entry): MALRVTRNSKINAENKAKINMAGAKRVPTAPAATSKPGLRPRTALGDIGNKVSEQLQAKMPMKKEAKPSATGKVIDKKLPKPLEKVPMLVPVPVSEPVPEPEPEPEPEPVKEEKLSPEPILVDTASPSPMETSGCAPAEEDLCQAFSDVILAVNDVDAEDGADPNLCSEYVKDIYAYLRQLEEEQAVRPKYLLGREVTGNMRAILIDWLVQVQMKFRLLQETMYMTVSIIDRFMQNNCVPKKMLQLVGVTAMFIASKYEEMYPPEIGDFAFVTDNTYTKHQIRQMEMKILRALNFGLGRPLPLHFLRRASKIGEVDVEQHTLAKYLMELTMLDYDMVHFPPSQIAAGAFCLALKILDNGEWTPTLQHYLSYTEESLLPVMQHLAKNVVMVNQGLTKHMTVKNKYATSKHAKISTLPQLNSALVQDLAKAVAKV

O=c1cc(-c2ccc(O)c(O)c2)oc2cc(O)cc(O)c12 [Luteolin, 3′,4′,5,7-tetrahydroxyflavone]
Kd: ~36.7 µM
